Counter-ions that a name gives are not always drawn.
Assays:
[1] = target: T1, human ProRS (prolyl tRNA synthetase moiety of glutamyl prolyl tRNA synthetase, EPRS) (Homo sapiens, UniProt P07814); assay: Assay for inhibitors of prolyl tRNA synthetase activity (ProRS assay, labeled proline incorporation); format: biochemical; details: human ProRS 20 nM, 10 min at 37° C.; read-out: EPRS IC50
T1 construct: The prolyl tRNA synthetase moiety (ProRS) in the cDNA of glutamyl prolyl tRNA synthetase was subcloned; 6xHis (N, cleaved yes); made in house; host or cells: E. coli BL21 (DE3)
T1 sequence (P07814 1007-1512 limits assumed): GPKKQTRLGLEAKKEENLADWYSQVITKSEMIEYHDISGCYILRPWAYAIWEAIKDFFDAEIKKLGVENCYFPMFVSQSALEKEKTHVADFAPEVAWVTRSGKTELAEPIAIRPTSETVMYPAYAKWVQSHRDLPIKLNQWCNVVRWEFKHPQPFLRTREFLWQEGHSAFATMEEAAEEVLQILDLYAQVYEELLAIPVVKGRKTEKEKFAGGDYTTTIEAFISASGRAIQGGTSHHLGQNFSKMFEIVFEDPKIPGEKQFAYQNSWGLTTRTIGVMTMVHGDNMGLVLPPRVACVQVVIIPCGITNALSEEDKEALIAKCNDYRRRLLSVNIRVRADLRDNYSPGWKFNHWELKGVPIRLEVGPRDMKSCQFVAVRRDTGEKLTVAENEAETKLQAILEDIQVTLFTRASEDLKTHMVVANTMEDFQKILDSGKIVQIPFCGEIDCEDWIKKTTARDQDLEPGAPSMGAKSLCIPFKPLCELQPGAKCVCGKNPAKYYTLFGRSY
From the text: In order to establish the activities of the compounds highlighted above, we determined extent of inhibition of prolyl tRNA synthetase activity in dose response curves to obtain IC50 values.
The prolyl tRNA synthetase moiety (ProRS) in the cDNA of glutamyl prolyl tRNA synthetase was subcloned, tagged with a single biotin, purified and used in the assay.
Briefly, human ProRS with a 6×N-terminal His tag in pET28N with TVMV BioP was transformed in E. coli BL21 (DE3) cells, selected, overexpressed and purified using a Ni Seph 6 FF XK 16/20 column in the first stage. Ni-NTA eluates were pooled and treated with TVMV protease, and biotinylated using d-Biotin, MgCl2, ATP and the BirA enzyme. This was rerun through a Ni column as before. The eluates were further enriched and purified using membrane ultrafiltration and a SuperDex 200 XK 16/60 column, and peak fractions were confirmed by SDS-PAGE prior to protein amount determination, aliquoting and storage at −80° C. • ProRS assay was performed in 96 well plates in a final reaction volume of 20 μl, using staggered additions of Tris-Cl (pH 7.5, 60 mM), dithiothreitol (2 mM), ATP (5 mM, pH 7.0), MgCl2 6 mM), ProRS (20 nM, with pre-determined active fraction range) and bovine tRNA (20 μg). Controls and compounds, at various concentrations (10 μM to 0.5 nM), were incubated on ice with enzyme mix for 15 min followed by addition of proline (non-labeled and labeled, 3.96 and 1.04 μM (1 μCi) respectively) to initiate the reaction. Reaction was carried out for 10 min at 37° C. and terminated by addition of TCA (10%, 100 μl). Reaction mix was collected on a Whatman GF/B filter using a vacuum filtration manifold. This filter was washed 3 times with 5% TCA followed by 2 washes with ethanol, air dried, and read using a liquid scintillation counter (TopCount NXT) using MicroScint O. IC50 values were calculated and analyzed using ToolSet (4-parameter plot) and depicted herein.

[2] = tested on: Rat hepatocytes; assay: GSH trapping assay in rat hepatocytes; format: in vitro ADME; details: 30 μM, 24 hr incubation, LC-MS
Description: Rat hepatocytes were isolated from male Sprague-Dawley rats (Vivo Biotech Ltd, HYD, India), weighing 230 to 280 g by the two step collagenase perfusion method (seglen, 1976; Berry M N and Friend D S.1969). Rat hepatocytes were cultured in Dulbecco's Modified Eagle's Medium (DMEM, Gibco®, USA) supplemented with 10^−6 M dexamethasone (Gibco®), 5% fetal bovine serum (Gibco®) and cocktail-A mix (CM3000, Gibco®) containing HEPES buffer (PH 7.4), GlutaMAX™, human recombinant insulin, penicillin and streptomycin. Initial cell viability assessed by Trypanblue stain 0.4% (Sigma, UK) and viability more than 80% were considered for culturing. Hepatocytes were seeded in 96 well type-I collagen coated plates (Gibco®) at 4×10^4 cells/well in 100 μL of the culture medium and incubated at 37° C. in 5% CO2 and 95% relative humidity (RH) for 4 hr of cell attachment.
After 4 hr incubation, rat hepatocytes were washed twice with pre-warmed (37° C.) DMEM incubation medium supplemented with 10^−7 M dexamethasone and cell maintenance cocktail-B (CM4000, Gibco®) solution to remove unattached cells. Post washing hepatocytes were treated with test and reference compounds in incubation medium at single concentration (30 μM) in duplicate and incubate further for 24 hr at 37° C. with 5% CO2 and 95% RH. The final concentration of DMSO in medium was 0.5%.
Post 24 hr incubation, hepatocyte samples were quenched with equal volumes of acetonitrile containing 0.1% formic acid followed by vortex mix, sonicate and centrifuge at 12000 rpm at room temperature for 5 min. Supernatant samples were analyzed for GSH adducts on a C18 reverse-phase column (Xbridge™ Shield, C18, 4.6×150 mm, 3.5 μm) with solvent A (10 mM ammonium formate and 0.1% formic acid/water) and solvent B (0.1% formic acid/acetonitrile).
The column was eluted with 5% B for 5 min and then with a linear gradient to 20% B over 10 min and it was maintained up to 15 min, then it was increased linearly to 40% B up to 27 min and then increase to 90% B up to 29 min, and then equilibrate back the column to 5% B up to 33 min at a flow rate of 0.6 ml/min. The column effluent was directed into the ESI source of a LTQ Velos Orbitrap mass spectrometer (Thermo Fisher Scientific, San Jose, Calif.). The ESI conditions were as follows: sheath gas flow rate, 40 arbitrary units; auxiliary gas, 30 arbitrary units; spray voltage, 4.5 kV; capillary temperature, 230° C.; capillary voltage, 30 V; and tube lens offset, 25 V. Data were acquired in positive ion mode using Xcalibur software (Thermo Fisher Scientific) with one full scan followed by two data-dependent scans of the most intense and the second most intense ions. During the data interpretation the characteristic fragments of neutral loss of glycine (75.0320 Da), pyroglutamic acid (129.0426 Da) and loss of neutral moiety GSH (307.0838 Da) and/or a specific fragment of (GSH+H)^+ (m/z 308.0911) were monitored. Finally the fragments ions with m/z e.g. 179.0485, 177.0328 and 162.0219 Da, which were derived from the glutathione moiety were used to report GSH positive results.

Structure (SMILES)	IC50 [1] [nM]	GSH adduct formation [2]
Cl.O=c1c2c(-c3cccc(F)c3)cccc2ncn1C[C@@H](O)C[C@H]1NCCC[C@@H]1O [Example 49]		Negative
COc1cc2ncn(C[C@@H](O)C[C@H]3NCCC[C@@H]3O)c(=O)c2cc1Cl.Cl [Example 33, 6-Chloro-3-{(S)-2-hydroxy-3-[(2R,3S)-3-hydroxypiperidin-2-yl]propyl}-7-methoxyquinazolin-4(3H)-one hydrochloride]	116	Negative
Cc1ccc(C(F)(F)F)c2c(=O)n(CC(=O)C[C@H]3NCCC[C@@H]3O)cnc12 [Example 29, 3-{3-[(2R,3S)-3-Hydroxypiperidin-2-yl]-2-oxopropyl}-8-methyl-5-(trifluoromethyl)quinazolin-4(3H)-one hydrochloride]	313	
Cc1cc(C)c2ncn(C[C@@H](O)C[C@H]3NCCC[C@@H]3O)c(=O)c2c1 [Example 39, 3-{(S)-2-Hydroxy-3-[(2R,3S)-3-hydroxypiperidin-2-yl]propyl}-6,8-dimethylquinazolin-4(3H)-one hydrochloride]	158	
Cc1cc(F)cc2c(=O)n(C[C@@H](O)C[C@H]3NCCC[C@@H]3O)cnc12 [Example 34, 6-Fluoro-3-{(S)-2-hydroxy-3-[(2R,3S)-3-hydroxypiperidin-2-yl]propyl}-8-methylquinazolin-4(3H)-one hydrochloride]	183	
COC(=O)N1CCC[C@H](O)[C@H]1C[C@H](O)Cn1cnc2c(C)cc(Cl)cc2c1=O [Example 65, Methyl (2R,3S)-2-((S)-3-(6-chloro-8-methyl-4-oxoquinazolin-3(4H)-yl)-2-hydroxypropyl)-3-hydroxypiperidine-1-carboxylate]	> 10000	
Cc1cc(N2CCCC2)cc2c(=O)n(C[C@@H](O)C[C@H]3NCCC[C@@H]3O)cnc12 [Example 58, 3-{(S)-2-Hydroxy-3-[(2R,3S)-3-hydroxypiperidin-2-yl]propyl}-8-methyl-6-(pyrrolidin-1-yl)quinazolin-4(3H)-one dihydrochloride]	321	
Cc1cc(C#N)cc2c(=O)n(C[C@@H](O)C[C@H]3NCCC[C@@H]3O)cnc12 [Example 47, 3-{(S)-2-Hydroxy-3-[(2R,3S)-3-hydroxypiperidin-2-yl]propyl}-8-methyl-4-oxo-3,4-dihydroquinazoline-6-carbonitrile hydrochloride]	235	
O=c1c2c(-c3ccc(F)c(F)c3)cccc2ncn1C[C@@H](O)C[C@H]1NCCC[C@@H]1O [Example 61, 5-(3,4-Difluorophenyl)-3-{(S)-2-hydroxy-3-[(2R,3S)-3-hydroxypiperidin-2-yl]propyl}quinazolin-4(3H)-one hydrochloride]	69	

The next lines start with the values.

IC50 [1] [nM]	GSH adduct formation [2]	Structure (SMILES)
4	Negative	Cc1cc(Br)cc2c(=O)n(CC(=O)C[C@H]3NCCC[C@@H]3O)cnc12.Cl [Example 3, 6-Bromo-3-{3-[(2R,3S)-3-hydroxypiperidin-2-yl]-2-oxopropyl}-8-methylquinazolin-4(3H)-one hydrochloride]
55	Negative	Cc1cc2ncn(C[C@@H](O)C[C@H]3NCCC[C@@H]3O)c(=O)c2cc1F.Cl [Example 32, 6-Fluoro-3-{(S)-2-hydroxy-3-[(2R,3S)-3-hydroxypiperidin-2-yl]propyl}-7-methylquinazolin-4(3H)-one hydrochloride]
19	Negative	Cc1cc(Cl)cc2c(=O)n(C[C@@H](O)C[C@H]3NCCC[C@@H]3O)cnc12.Cl [Example 30, 6-Chloro-3-{(S)-2-hydroxy-3-[(2R,3S)-3-hydroxypiperidin-2-yl]propyl}-8-methylquinazolin-4(3H)-one hydrochloride]
9		Cc1cc(OC(F)(F)F)cc2c(=O)n(CC(=O)C[C@H]3NCCC[C@@H]3O)cnc12 [Example 7, 3-{3-[(2R,3S)-3-Hydroxypiperidin-2-yl]-2-oxopropyl}-8-methyl-6-(trifluoromethoxy)quinazolin-4(3H)-one hydrochloride]
10		O=C(C[C@H]1NCCC[C@@H]1O)Cn1cnc2ccc(-c3cccc(F)c3)cc2c1=O [Example 16, 6-(3-Fluorophenyl)-3-{3-[(2R,3S)-3-hydroxypiperidin-2-yl]-2-oxopropyl}quinazolin-4(3H)-one hydrochloride]
52		Cc1cc(C2CCOCC2)cc2c(=O)n(C[C@@H](O)C[C@H]3NCCC[C@@H]3O)cnc12 [Example 57, 3-{(S)-2-Hydroxy-3-[(2R,3S)-3-hydroxypiperidin-2-yl]propyl}-8-methyl-6-(tetrahydro-2H-pyran-4-yl)quinazolin-(3H)-one hydrochloride]
9		Cc1cc(-c2cccc(F)c2)cc2c(=O)n(C[C@@H](O)C[C@H]3NCCC[C@@H]3O)cnc12 [Example 53, 6-(3-Fluorophenyl)-3-{(S)-2-hydroxy-3-[(2R,3S)-3-hydroxypiperidin-2-yl]propyl}-8-methylquinazolin-4(3H)-one hydrochloride]
49		COc1ccc2c(=O)n(CC(=O)C[C@H]3NCCC[C@@H]3O)cnc2c1C [Example 4, 3-{3-[(2R,3S)-3-Hydroxypiperidin-2-yl]-2-oxopropyl}-7-methoxy-8-methylquinazolin-4(3H)-one hydrochloride]
8		O=C(C[C@H]1NCCC[C@@H]1O)Cn1cnc2cccc(F)c2c1=O [Example 5, 5-Fluoro-3-{3-[(2R,3S)-3-hydroxypiperidin-2-yl]-2-oxopropyl}quinazolin-4(3H)-one hydrochloride]

From US20210163443A1, “Febrifugine Derivatives” (BRISTOL-MYERS SQUIBB COMPANY, priority 2019, published 2021)
